Laboratory results published in patent US9067898B1, “Isothiazole derivatives as GPR120 agonists for the treatment of type II diabetes” (Janssen Pharmaceutica NV, priority 2014, dated 2015).

Assays:
Assay type in all cases: cell-based
Human GPR120 short form = target: T1, Human GPR120 short form (Homo sapiens, UniProt Q5NUL3); assay: Human GPR120 calcium flux assay (FLIPR), Procedure Calcium B; conditions: HEK-293 cells expressing human GPR120 short form, 4200 cells/well; read-out: GPR120 Ca2+ Assay B EC50
T1 construct: expressed in transfected cells
T1 sequence (Q5NUL3 1-361): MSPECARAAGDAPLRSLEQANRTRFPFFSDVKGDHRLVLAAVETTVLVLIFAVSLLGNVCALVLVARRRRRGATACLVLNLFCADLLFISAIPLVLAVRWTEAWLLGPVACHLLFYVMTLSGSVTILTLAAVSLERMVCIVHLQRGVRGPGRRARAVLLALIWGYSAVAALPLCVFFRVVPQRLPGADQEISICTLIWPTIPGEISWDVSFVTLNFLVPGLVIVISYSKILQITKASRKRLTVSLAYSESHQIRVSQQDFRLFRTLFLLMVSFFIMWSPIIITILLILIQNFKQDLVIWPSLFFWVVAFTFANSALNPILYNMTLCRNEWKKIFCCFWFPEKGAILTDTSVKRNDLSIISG
Text: This in vitro assay serves to assess test compound agonist activity against the short splice variant (SVS with Accession number NM_001195755.1 confirmed by sequencing data) of the GPR120 receptor. The Human Short splice variant #2 (NM_001195755.1) is missing an in-frame coding exon compared to variant 1 (the Human Long splice variant NM_181745.3), resulting in a shorter isoform (GPR120-S) lacking a 16 aa protein segment compared to isoform GPR120-L. The assay platform utilizes HEK-293 cells stably transfected to express the Human GPR120 short form. These cells are first loaded with the Ca^+2 sensitive dye, Fluo-4 NW. Upon stimulation, intracellular released Ca^+2 can bind to the dye and alter its fluorescence intensity. This increase in fluorescence signal, and thus the flux in intracellular [Ca^2+], is detected and quantitated by fluorescence imaging using a FLIPR reader. The effect of the agonist is measured as a function of concentration and used to calculate an EC50 based upon a response curve.
In this procedure 4200 cells/well were employed.
A Human GPR120 clone (Genbank accession number NM_001195755.1) was placed into the pcDNA3.1 mammalian expression vector carrying the neomycin resistance gene. A stable mammalian cell was generated by placing the above clone into a HEK293 background. Clonal cells responding to long chain fatty acids had expression levels of GPR120 confirmed by RT-qPCR. Human HEK-GPR120 cells were cultured in Dulbecco's Modified Eagle's Medium (DMEM)/F12 medium supplemented with 10% fetal bovine serum (FBS), 1% L-Glutamine and 1% penicillin/streptomycin and 0.5 mg/ml G-418. Cells were split 2 times a week to keep the cells in the log-phase growth.
In preparation for the assay, HEK cells stably transfected with Human GPR120 (2.5K cells per well in 25 uL growth medium) were seeded into 384-well plates and then incubated overnight (37° C., 5% CO2). The next day, the media was changed to 20 μL assay buffer and the cell starved for 1 h at 37° C. The dye loading solution (2× dye) was prepared using 10 mL assay buffer, 100 μL of 250 mM probenecid, 1 bottle of Component A, and 20 μl of dye in DMSO. Twenty μL of the 2× dye loading buffer was then added to each well. The plates were incubated at 37° C. for 30 min, then at room temperature for an additional 15 minutes, before performing the assay on FLIPR. Test compounds were prepared in assay buffer (2 uL of cpd+198 uL assay buffer, final DMSO in assay plate is 0.2%) at the desired concentration, more particularly at 100, 50, 25, 12.5, 6.25, 3.125, 1.562, 0.781, 0.391, 0.195, 0.098, 0.049, 0.024 and 0.012 μM.
The assay was performed on a FLIPR plate reader using the following parameters. Baseline was read for 10 seconds at 1 sec intervals. The program was set to transfer 10 μL of ligand from compound plate to cell plate after baseline reading. Aspiration was executed at: 10 μL/sec speed, 4.6 μL height; Dispensing was executed at: 30 μL/sec speed, 45 μL height. After compound addition, each well was read for 300 sec, with measurements collected at 1 sec intervals.
The kinetic data from the FLIPR was based upon a 5 minute window for data collection. The fluorescence of each sample well was used for individual calculations of a normalized RFU value, which was defined as maximum response minus the minimum response. The normalized fluorescence reading (RFU) was calculated as follows: RFU=Fmax−Fmin The data were fitted to a sigmoidal dose-response curve with a variable Hill slope (<2) using nonlinear regression with GraphPad Prism 5.0 to calculate the EC50 values. The Fitting Equation was: Y=Bottom+(Top−Bottom)/(1+10^((Log EC50−X)*HillSlope)), where X is the log of the concentration and Y is the response.

[1] = target: T2, short form of the GPR120 receptor (GPR120S) (Homo sapiens, UniProt Q5NUL3); assay: Human GPR120 DiscoveRx PathHunter Beta-Arrestin assay, Procedure β-arrestin B; conditions: PathHunter CHO-K1 GPR120S β-Arrestin cell line, 5000 cells/well, read-out: hGPR120 β-arrestin B EC50
T2 construct: host or cells: PathHunter CHO-K1 GPR120S β-Arrestin Cell Line
T2 sequence (P32121 whole entry partner, one chain of several): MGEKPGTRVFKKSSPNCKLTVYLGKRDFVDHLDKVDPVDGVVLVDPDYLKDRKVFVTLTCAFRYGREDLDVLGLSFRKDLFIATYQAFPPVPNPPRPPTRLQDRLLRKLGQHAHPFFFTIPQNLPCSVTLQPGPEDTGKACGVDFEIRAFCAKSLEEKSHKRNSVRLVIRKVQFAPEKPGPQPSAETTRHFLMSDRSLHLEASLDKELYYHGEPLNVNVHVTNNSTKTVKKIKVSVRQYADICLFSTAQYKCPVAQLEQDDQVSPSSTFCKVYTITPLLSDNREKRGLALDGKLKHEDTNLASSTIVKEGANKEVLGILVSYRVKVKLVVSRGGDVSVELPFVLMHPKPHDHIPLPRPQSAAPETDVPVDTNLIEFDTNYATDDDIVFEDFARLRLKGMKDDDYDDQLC
How it was run: (§1)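 PathHunter CHO-K1 β-arrestin cells expressed long-form GPR120 (Procedure A, 3000 cells/well) or short-form GPR120 (Procedure B, 5000 cells/well). Compounds were serially diluted from 25 µM and incubated 90 min at 37 °C in HBSS/20 mM HEPES/0.1% BSA, pH 7.4. Luminescence was read after 60 min detection at RT; EC50 comes from % activity versus positive control, Hill slope fixed at 1.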

[2] = target: T3, long form of human GPR120 (Homo sapiens, UniProt Q5NUL3); assay: Human GPR120 DiscoveRx PathHunter Beta-Arrestin assay, Procedure β-arrestin A; conditions: PathHunter CHO-K1 GPR120 β-Arrestin cell line, 3000 cells per well, read-out: hGPR120 β-arrestin A EC50
T3 construct: host or cells: PathHunter CHO-K1 GPR120 β-Arrestin Cell Line
T3 sequence (Q5NUL3 1-377 isoform Q5NUL3-1): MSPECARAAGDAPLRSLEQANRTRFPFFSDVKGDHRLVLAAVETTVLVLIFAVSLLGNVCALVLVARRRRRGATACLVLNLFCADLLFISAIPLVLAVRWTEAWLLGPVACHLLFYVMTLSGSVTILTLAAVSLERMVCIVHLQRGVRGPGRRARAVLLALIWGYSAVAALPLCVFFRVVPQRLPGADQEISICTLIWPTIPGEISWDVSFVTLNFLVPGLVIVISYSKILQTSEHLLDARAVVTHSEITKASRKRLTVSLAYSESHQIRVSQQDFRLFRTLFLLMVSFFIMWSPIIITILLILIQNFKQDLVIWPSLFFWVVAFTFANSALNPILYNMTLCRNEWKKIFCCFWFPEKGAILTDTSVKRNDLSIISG
T3 sequence (P32121 whole entry partner): as the sequence (P32121 whole entry partner, one chain of several) above
How it was run: as §1

SMILES | EC50 (Human GPR120 short form) [nM] | EC50 [1] [nM] | EC50 [2] [nM]
Cc1ccccc1-c1snc(Cl)c1COc1ccc(CCC(=O)O)cc1 [Cpd 254, 3-(4-{[3-Chloro-5-(2-methylphenyl)isothiazol-4-yl]methoxy}phenyl)propanoic acid] | 401 |  | 
CC1CC=C(c2snc(Cl)c2COc2ccc(CCC(=O)O)c(C(F)(F)F)c2)CC1 (stereo not drawn) [Cpd 276, 3-[4-{[3-Chloro-5-(4-methylcyclohex-1-en-1-yl)isothiazol-4-yl]methoxy}-2-(trifluoromethyl)phenyl]propanoic acid] | 886 |  | 
CCc1ccc(-c2nsc(C(F)(F)F)c2COc2c(F)cc(CCC(=O)O)cc2F)nc1 [Cpd 273, 3-(4-{[3-(5-Ethylpyridin-2-yl)-5-(trifluoromethyl)isothiazol-4-yl]methoxy}-3,5-difluorophenyl)propanoic acid] | 427 | 721 | 
Cc1c(CCC(=O)O)ccc(OCc2c(-c3ccc(C#N)cc3)nsc2C(F)(F)F)c1C [Cpd 264, 3-(4-{[3-(4-Cyanophenyl)-5-(trifluoromethyl)isothiazol-4-yl]methoxy}-2,3-dimethylphenyl)propanoic acid] | 379 | 667 | 
CCc1ccc(-c2nsc(C(C)C)c2COc2ccc(CCC(=O)O)c(C)c2C)cc1 [Cpd 64, 3-(4-[[3-(4-ethylphenyl)-5-(propan-2-yl)-1,2-thiazol-4-yl]methoxy]-2,3-dimethylphenyl)propanoic acid] | 923 |  | 
O=C(O)CCc1ccc(OCc2c(-c3ccc(Cl)cc3)nsc2C(F)(F)F)cc1C(F)F [Cpd 274, 3-[4-{[3-(4-Chlorophenyl)-5-(trifluoromethyl)isothiazol-4-yl]methoxy}-2-(difluoromethyl)phenyl]propanoic acid] | 3980 |  | 
N#Cc1ccc(-c2nsc(C(F)(F)F)c2COc2c(F)cc(CCC(=O)O)cc2F)cc1 [Cpd 261, 3-(4-{[3-(4-Cyanophenyl)-5-(trifluoromethyl)isothiazol-4-yl]methoxy}-3,5-difluorophenyl)propanoic acid] | 672 | 332 | 
Cc1ccc(-c2snc(Cl)c2COc2c(F)cc(CCC(=O)O)cc2F)c(F)c1 [Cpd 252, 3-(4-{[3-Chloro-5-(2-fluoro-4-methylphenyl)isothiazol-4-yl]methoxy}-3,5-difluorophenyl)propanoic acid] | 45 |  | 191
Cc1ccc(-c2snc(Cl)c2COc2ccc(CCC(=O)O)c(C(C)(F)F)c2)cc1 [Cpd 278, 3-[4-{[3-Chloro-5-(4-methylphenyl)isothiazol-4-yl]methoxy}-2-(1,1-difluoroethyl)phenyl]propanoic acid] | 601 |  | 
OCCCc1cc(F)c(OCc2c(-c3ccc(Cl)cc3F)nsc2C(F)(F)F)c(F)c1 [Cpd 262, 3-(4-{[3-(4-Chloro-2-fluorophenyl)-5-(trifluoromethyl)isothiazol-4-yl]methoxy}-3,5-difluorophenyl)propan-1-ol] | 139 | 80 | 
O=C(O)CCc1ccc(OCc2c(Cl)nsc2-c2ccccc2Cl)cc1C(F)(F)F [Cpd 259, 3-[4-{[3-Chloro-5-(2-chlorophenyl)isothiazol-4-yl]methoxy}-2-(trifluoromethyl)phenyl]propanoic acid] | 261 |  | 
CC(Cc1cc(F)c(OCc2c(-c3ncc(Cl)cc3F)nsc2C(F)(F)F)c(F)c1)C(=O)O (stereo not drawn) [Cpd 265, 3-(4-{[3-(5-Chloro-3-fluoropyridin-2-yl)-5-(trifluoromethyl)isothiazol-4-yl]methoxy}-3,5-difluorophenyl)-2-methylpropanoic acid] | 248 | 527 | 
COc1cc(OCc2c(Cl)nsc2-c2ccc(C)cc2F)ccc1CCC(=O)O [Cpd 258, 3-(4-{[3-Chloro-5-(2-fluoro-4-methylphenyl)isothiazol-4-yl]methoxy}-2-methoxyphenyl)propanoic acid] | 210 |  | 
COc1ncc(-c2nsc(C(F)(F)F)c2COc2ccc(CCC(=O)O)c(C)c2C)s1 [Cpd 268, 3-(4-{[3-(2-Methoxy-1,3-thiazol-5-yl)-5-(trifluoromethyl)isothiazol-4-yl]methoxy}-2,3-dimethylphenyl)propanoic acid] | 473 | 445 | 
Cc1cc(OCc2c(-c3ccc(Cl)cc3)nsc2C(F)(F)F)ccc1CCC(=O)O [Cpd 275, 3-(4-{[3-(4-Chlorophenyl)-5-(trifluoromethyl)isothiazol-4-yl]methoxy}-2-methylphenyl)propanoic acid] | 1110 |  | 
Cc1ccccc1-c1snc(Cl)c1COc1ccc(CCC(=O)O)c(C(F)(F)F)c1 [Cpd 253, 3-[4-{[3-Chloro-5-(2-methylphenyl)isothiazol-4-yl]methoxy}-2-(trifluoromethyl)phenyl]propanoic acid] | 349 |  | 
Cc1ccc(-c2snc(Cl)c2COc2ccc(CCC(=O)O)c(C(C)F)c2)cc1 (stereo not drawn) [Cpd 279, 3-[4-{[3-Chloro-5-(4-methylphenyl)isothiazol-4-yl]methoxy}-2-(1-fluoroethyl)phenyl]propanoic acid] | 755 |  | 
O=C(O)CCc1cc(F)c(OCc2c(-c3ccns3)nsc2C(F)(F)F)c(F)c1 [Cpd 272, 3-(3,5-Difluoro-4-{[5-(trifluoromethyl)-3,5′-biisothiazol-4-yl]methoxy}phenyl)propanoic acid] | 573 | 750 | 
Cc1ccc(-c2snc(Cl)c2COc2ccc(CCC(=O)O)c(C(F)(F)F)c2)c(C)c1 [Cpd 256, 3-[4-{[3-Chloro-5-(2,4-dimethylphenyl)isothiazol-4-yl]methoxy}-2-(trifluoromethyl)phenyl]propanoic acid] | 986 |  | 
Cc1ccc(-c2snc(Cl)c2COc2ccc(CCC(=O)O)cc2)c(C)c1 [Cpd 255, 3-(4-{[3-Chloro-5-(2,4-dimethylphenyl)isothiazol-4-yl]methoxy}phenyl)propanoic acid] | 550 |  | 
Cc1cc(OCc2c(Cl)nsc2-c2ccccc2C)ccc1CCC(=O)O [Cpd 257, 3-(4-{[3-Chloro-5-(2-methylphenyl)isothiazol-4-yl]methoxy}-2-methylphenyl)propanoic acid] | 1060 |  | 
COc1ccccc1-c1snc(Cl)c1COc1ccc(CCC(=O)O)c(C(F)(F)F)c1 [Cpd 260, 3-[4-{[3-Chloro-5-(2-methoxyphenyl)isothiazol-4-yl]methoxy}-2-(trifluoromethyl)phenyl]propanoic acid] | 3430 |  | 
